According to patent publication US8492413B2, “Pharmaceutical combination of 5-fluorouracil and derivate of 1,4-dihydropyridine and its use in the treatment of cancer” (priority 2009, dated 2013):
Where a name gives a salt, the structure may show the parent alone. Read-outs that look alike come from different tables or passages of the source.

Legend:
[1] = test system: human breast cancer cells MDA-MB-435s; experiment: Cell viability of MDA-MB-435s cells, crystal violet staining assay, 72 h exposure; format: cell-based; settings: for IC50: 72 h, read-out: IC50 (concentration causing 50% cell viability decrease), compound alone
Experimental: Cell viability was measured using modified crystal violet staining (CVS) assay as described in [[…] et al., 1985]. In brief, cells were fixed with 1% glutaraldehyde for 15 minutes, washed with water and stained with 0.05% crystal violet for 15 minutes at room temperature. After removal of residual crystal violet by washing with tap water the crystal violet stain was eluted with ethanol sodium citrate (1:1) buffer, and absorbance at 540 nm was measured using a microplate reader. The IC50 values, corresponding to concentrations of compounds that cause 50% cell viability decrease, were calculated for individual compounds and their combinations and are summarized in Table 1.

[2] = test system: leukaemia P388, murine sarcoma 37 and Walker's carcinosarcome; settings: cited from earlier work

Work on `O=c1[nH]cc(F)c(=O)[nH]1` [Example 5-FU, 5-Fluorouracil] yielded an IC50 ([1]; Homo sapiens, single agent, MDA-MB-435s) of 30 µM.

In the case of `CC1=C(C(=O)OCC(=O)O)C(C)C(C(=O)OCC(=O)O)=C(C)N1` [disodium salt of 2,4,6-trimethyl-1,4-dihydropyridine-3,5-bis-carbonyloxyacetic acid], the IC50 ([1]; Homo sapiens, MDA-MB-435S) is reported as > 2690 µM.

For `CC1=C(C(=O)OCC(=O)[O-])CC(C(=O)OCC(=O)[O-])=C(C)N1.[Na+].[Na+]` [Carbatone, Disodium salt of carboxylate-methyl ester of 2,6-dimethyl-1,4-dihydropyridine-3,5-dicarboxylic acid], the “Effect on cytostatic activity of cyclophosphane, 5-fluorouracil and arabisosyl cytosine” value ([2]; against leukaemia P388, murine sarcoma 37 and Walker's carcinosarcome) is listed as “potentiates the cytostatic activity”, the “Antitumour activity of the compound itself” value ([2]; alone) is listed as “exhibited no antitumour activity” and the “Effect on cyclophosphane toxicity” value ([2]; mice) is listed as “decreasing the cyclophosphane toxicity”. For the same compound, the “Effect on the cytotoxic effect of 5-FU (in words)” value ([1]; combined treatment with 5-FU, MDA-MB-435s) was “synergistically potentiates the cytotoxic effect of 5-FU” and the IC50 ([1]; single agent, MDA-MB-435s) was 1320 µM.

In the case of `CCC1C(C(=O)OCC(=O)O)=C(C)NC(C)=C1C(=O)OCC(=O)O` [disodium salt of 4-ethyl-2,6-dimethyl-1,4-dihydropyridine-3,5-bis-carbonyloxyacetic acid], the IC50 ([1]; Homo sapiens, MDA-MB-435S) is reported as > 2100 µM.
